Data reported in the NIST ThermoML archive (doi:10.1021/acs.jced.8b01237).
± gives the expanded uncertainty stated by the source.

Conditions: 298.15 K; 100 kPa; Liquid; Concentric cylinders viscometry

In order of falling viscosity:
1. CCCCCC[N+]1(C)CCCC1.O=S(=O)([N-]S(=O)(=O)C(F)(F)F)C(F)(F)F  98.3 ± 16 mPa·s
2. CCCC[N+]1(C)CCCC1.O=S(=O)([N-]S(=O)(=O)C(F)(F)F)C(F)(F)F  75.6 ± 12 mPa·s
3. CCC[N+]1(C)CCCC1.O=S(=O)([N-]S(=O)(=O)C(F)(F)F)C(F)(F)F  56.6 ± 9.1 mPa·s

Same assay, conditions: 318.15 K; 100 kPa; Liquid; Concentric cylinders viscometry

In order of rising viscosity:
1. CCC[N+]1(C)CCCC1.O=S(=O)([N-]S(=O)(=O)C(F)(F)F)C(F)(F)F  26.48 ± 4.2 mPa·s
2. CCCC[N+]1(C)CCCC1.O=S(=O)([N-]S(=O)(=O)C(F)(F)F)C(F)(F)F  34.3 ± 5.5 mPa·s
3. CCCCCC[N+]1(C)CCCC1.O=S(=O)([N-]S(=O)(=O)C(F)(F)F)C(F)(F)F  41.38 ± 6.6 mPa·s

Same assay, conditions: 338.15 K; 100 kPa; Liquid; Concentric cylinders viscometry

In order of rising viscosity:
1. CCC[N+]1(C)CCCC1.O=S(=O)([N-]S(=O)(=O)C(F)(F)F)C(F)(F)F  15.55 ± 2.5 mPa·s
2. CCCC[N+]1(C)CCCC1.O=S(=O)([N-]S(=O)(=O)C(F)(F)F)C(F)(F)F  18.62 ± 3 mPa·s
3. CCCCCC[N+]1(C)CCCC1.O=S(=O)([N-]S(=O)(=O)C(F)(F)F)C(F)(F)F  21.88 ± 3.5 mPa·s
